In patent publication US6451839B1, “Indole sPLA2 inhibitors” (Eli Lilly and Company, priority 1998, dated 2002):

molecular target: T1, recombinant human secreted phospholipase A2 (Homo sapiens, UniProt P14555); assay: chromogenic assay of recombinant human secreted phospholipase A2 inhibition; format: biochemical; conditions: diheptanoyl thio-PC substrate, pH 7.5, 40° C. for 30 minutes, absorbance at 405 nanometers, triplicate; read-out: Inhibition of human secreted PLA2 IC50 ± mean deviation
T1 sequence (P14555 21-144): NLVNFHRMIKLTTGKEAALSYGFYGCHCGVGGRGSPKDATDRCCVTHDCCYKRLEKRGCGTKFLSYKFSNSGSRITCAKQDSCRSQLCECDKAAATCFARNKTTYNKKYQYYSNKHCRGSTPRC
Excerpt: The following chromogenic assay procedure was used to identify and evaluate inhibitors of recombinant human secreted phospholipase A2. The assay described herein has been adapted for high volume screening using 96 well microtiter plates. A general description of this assay method is found in the article, “Analysis of Human Synovial Fluid Phospholipase A2 on Short Chain Phosphatidylcholine-Mixed Micelles: Development of a Spectrophotometric Assay Suitable for a Microtiterplate Reader”, by Laure J. Reynolds, Lori L. Hughes, and Edward A Dennis, Analytical Biochemistry, 204, pp. 190-197, 1992 (the disclosure of which is incorporated herein by reference):
RACEMIC DIHEPTANOYL THIO—PC
racemic 1,2-bis(heptanoylthio)-1,2-dideoxy-sn-glycero-3-phosphorylcholine
The reaction mixture thus obtained contains lmM diheptanoly thio-PC substrate, 0.29 mm Triton X-100™ detergent, and 0.12 mm DTMB in a buffered aqueous solution at pH 7.5.
1. Add 0.2 ml reaction mixture to all wells;
2. Add 10 ul test compound (or solvent blank) to appropriate wells, mix 20 seconds;
3. Add 50 nanograms of sPLA2 (10 microliters) to appropriate wells;
4. Incubate plate at 40° C. for 30 minutes;
5. Read absorbance of wells at 405 nanometers with an automatic plate reader.
All compounds were tested in triplicate. Typically, compounds were tested at a final concentration of 5 ug/ml. […] Lack of color development at 405 nanometers evidenced inhibition. Compounds initially found to be active were reassayed to confirm their activity and, if sufficiently active, IC50 values were determined. […] In all cases, % inhibition measured at 405 nanometers generated by enzyme reactions containing inhibitors relative to the uninhibited control reactions was determined. Each sample was titrated in triplicate and result values were averaged for plotting and calculation of IC50 values. IC50 were determined by plotting log concentration versus inhibition values in the range from 10-90% inhibition.

Structure (SMILES) | IC50 [µM]
CCc1c(NC(=O)C(F)(F)F)c2c(OCC(=O)O)cccc2n1Cc1ccccc1 [Example 3, [[3-trifluoroacetamido-2-ethyl-1-(phenylmethyl)-1H-indol-4-yl]oxy]acetic acid] | 51
CCc1c(NC(N)=S)c2c(OCC(=O)O)cccc2n1Cc1ccccc1 [Example 5, [[2-Ethyl-1-(phenylmethyl)-3-thioureido-1H-indol-4-yl]oxy]acetic acid] | 6.8
CCc1c(NC(=O)C(N)=O)c2c(OCC(=O)O)cccc2n1Cc1ccccc1 [Example 6, [[2-ethyl-3-oxamide-1-(phenylmethyl)-1H-indol-4-yl]oxy]acetic acid] | 13
CCc1c(NC(N)=O)c2c(OCC(=O)O)cccc2n1Cc1ccccc1Br [Example 8, [[2-ethyl-1-(2-bromo-phenylmethyl)-3-ureido-1H-indol-4-yl]oxy]acetic acid] | 0.074

The remaining molecules from weak to strong by IC50, led by results:

IC50 [µM] | Structure (SMILES)
65 | CCc1c(NC(C)=O)c2c(OCC(=O)O)cccc2n1Cc1ccccc1 [Example 2, [[3-Acetamido-2-ethyl-1-(phenylmethyl)-1H-indol-4-yl]oxy]acetic acid]
45 | CCc1c(NC(=O)CBr)c2c(OCC(=O)O)cccc2n1Cc1ccccc1 [Example 4, [[3-(Bromo)acetamido-2-ethyl-1-(phenylmethyl)-1H-indol-4-yl]oxy]acetic acid]
0.049 | CCc1c(NC(N)=O)c2c(OCC(=O)O)cccc2n1Cc1ccccc1 [Example 1, [[2-Ethyl-1-(phenylmethyl)-3-ureido-1H-indol-4-yl]oxy]acetic acid]
0.021 | CCc1c(NC(N)=O)c2c(OCC(=O)O)cccc2n1Cc1ccccc1-c1ccccc1 [Example 7, [[2-ethyl-1-(2-phenyl-phenylmethyl)-3-ureido-1H-indol-4-yl]oxy]acetic acid]
0.017 | CCc1c(NC(N)=O)c2c(OCC(=O)O)cccc2n1Cc1ccccc1-c1ccc(F)cc1 [Example 9, [[2-ethyl-1-(2-(4-fluorophenyl)-phenylmethyl)-3-ureido-1H-indol-4-yl]oxy]acetic acid]
